Results on 1 molecule are retold here after patent US8669264B2, “Rutaecarpine derivatives for activating CYP1A2 in a subject” (Linnet Biopharmaceuticals, Inc., priority 2011, dated 2014).

In this series the test system is CYP1A2. In words: MEROD assay in live Hepa1c1c7 cells (CYP1A2 induction). Type of series: cell-based, mouse. The note with it: Hepa1c1c7 cells incubated with 10 μM compound. From the text:
FIG. 1 illustrates how caffeine is primarily metabolized to paraxanthine via CYP1A2 enzyme in a human, according to some embodiments. The MEROD (methoxyresorufin-O-demethylase) assay measures the activity of the enzyme (CYP1A2) that converts methoxyresorufin (probe substrate) to resorufin (demethylation) in the presence of NADPH. The resulting resorufin concentration can be measured using a fluorescence reader by setting the excitation and emission wavelengths at 544 and 590 nm, respectively.
For MEROD assay in live cells, Hepa1c1c7 cells were cultured in either 6-well or 24-well-plates. For the 24-well plate experiment, after confluent cells were incubated for approximately 20 hours with either resorufin, nitro-resorufin, chloro-resorufin, 3-MC or DMSO (in triplicates), culture media was removed and 180 μL fresh culture media containing […] methoxyresorufin was added per well. After 1 hour incubation at 37° C., 100 μL aliquot was taken from each well and the formation of resorufin was measured by fluorescence. […] After 5 hours incubation at 37° C., 100 μL aliquot was taken from each well, centrifuged at 12,000 g at RT for ˜5 min and the supernatants were placed into wells of a 96-well fluorescence plate and the formation of resorufin was measured by fluorescence.

Turning to `O=c1c2ccc(Cl)cc2nc2n1CCc1c-2[nH]c2ccccc12` [chloro-rutaecarpine], the “formation of resorufin from live cells (MEROD)” value is listed as “no marked difference”.
